This passage reports GI50 results from patent publication US20250221998A1, “DISCOVERY OF COVALENT EGFR INHIBITOR THROUGH CYSTEINE 775” (Dana-Farber Cancer Institute, Inc., priority 2022, published 2025).

Assay [1] has as its target EGFR mutant L858R Ba/F3 cells (Homo sapiens, UniProt P00533, L858R, cells depend on it). In words: Ba/F3 cell proliferation (Cell Titer Glo), EGFR L858R. Format: cell-based, murine. Particulars: 72 hours exposure, read-out: L858R BaF3 (μM), inhibitory activity against EGFR mutants. The text has this:
(§1) The EGFR mutant L858R Ba/F3 cells have been previously described (Zhou, W., et al. Nature 462, 2009, 1070-1074). The EGFR C797S and C775S mutations were introduced via site directed mutagenesis using the Quick Change Site-Directed Mutagenesis kit into a vector containing EGFR L858R mutation (Stratagene; La Jolla, CA) according to the manufacturer's instructions. All constructs were confirmed by DNA sequencing. The constructs were then shuttled into the retroviral vector JP1540 by either using the Cre-recombination system (Agilent Technologies, Santa Clara, CA) or the In-fusion HD Cloning kit (Takara Bio USA, Inc.; Mountain view, CA). Ba/F3 cells were then infected with retrovirus per standard protocols, as described previously (Zhou, et al, Nature 2009). Stable clones were obtained by selection in puromycin (2 ug/ml). All BaF/3 mutant cells were maintained in RPMI 1640 (Cellgro; Mediatech Inc., Herndon, CA) supplemented with 10% FBS, 100 units/mL penicillin, 100 units/mL streptomycin.
(§2) Growth and inhibition of growth was assessed by the Cell Titer Glo assay (Promega, Madison, WI) and was performed according to the manufacturer's instructions. The Cell Titer Glo assay is a luminescence-based method used to determine the number of viable cells based on quantitation of the ATP present, which is directly proportional to the amount of metabolically active cells present. Ba/F3 cells of different EGFR genotypes were exposed to compounds for 72 hours and the number of cells used per experiment was determined empirically as has been previously established (Zhou, et al., Nature 2009). All experimental points were set up in triplicates in 384-well plates. […] The curves were fitted using a non-linear regression model with a sigmoidal dose response.
(§3) For inhibitory activity against EGFR mutants, the following designations are used: ≤0·25 μM=A, 0·25 μM˜0.5 μM=B, 0.5 μM˜2.5 μM=C, ≥2.5 μM=D.
In general terms: Cellular ATP, detected with luciferase, serves as a proxy for viable cell number.

Assay [2] concerns the target EGFR L858R/C797S Ba/F3 cells (Homo sapiens, UniProt P00533, C797S/L858R, cells depend on it). In words: Ba/F3 cell proliferation (Cell Titer Glo), EGFR L858R/C797S. The class given is cell-based, murine. Particulars: 72 hours exposure, read-out: L858R/C797S (μM), inhibitory activity against EGFR mutants.
From the text: as §1, §2, §3

Sequence of EGFR mutant L858R Ba/F3 cells (P00533 whole entry L858R, the tested form may be a part): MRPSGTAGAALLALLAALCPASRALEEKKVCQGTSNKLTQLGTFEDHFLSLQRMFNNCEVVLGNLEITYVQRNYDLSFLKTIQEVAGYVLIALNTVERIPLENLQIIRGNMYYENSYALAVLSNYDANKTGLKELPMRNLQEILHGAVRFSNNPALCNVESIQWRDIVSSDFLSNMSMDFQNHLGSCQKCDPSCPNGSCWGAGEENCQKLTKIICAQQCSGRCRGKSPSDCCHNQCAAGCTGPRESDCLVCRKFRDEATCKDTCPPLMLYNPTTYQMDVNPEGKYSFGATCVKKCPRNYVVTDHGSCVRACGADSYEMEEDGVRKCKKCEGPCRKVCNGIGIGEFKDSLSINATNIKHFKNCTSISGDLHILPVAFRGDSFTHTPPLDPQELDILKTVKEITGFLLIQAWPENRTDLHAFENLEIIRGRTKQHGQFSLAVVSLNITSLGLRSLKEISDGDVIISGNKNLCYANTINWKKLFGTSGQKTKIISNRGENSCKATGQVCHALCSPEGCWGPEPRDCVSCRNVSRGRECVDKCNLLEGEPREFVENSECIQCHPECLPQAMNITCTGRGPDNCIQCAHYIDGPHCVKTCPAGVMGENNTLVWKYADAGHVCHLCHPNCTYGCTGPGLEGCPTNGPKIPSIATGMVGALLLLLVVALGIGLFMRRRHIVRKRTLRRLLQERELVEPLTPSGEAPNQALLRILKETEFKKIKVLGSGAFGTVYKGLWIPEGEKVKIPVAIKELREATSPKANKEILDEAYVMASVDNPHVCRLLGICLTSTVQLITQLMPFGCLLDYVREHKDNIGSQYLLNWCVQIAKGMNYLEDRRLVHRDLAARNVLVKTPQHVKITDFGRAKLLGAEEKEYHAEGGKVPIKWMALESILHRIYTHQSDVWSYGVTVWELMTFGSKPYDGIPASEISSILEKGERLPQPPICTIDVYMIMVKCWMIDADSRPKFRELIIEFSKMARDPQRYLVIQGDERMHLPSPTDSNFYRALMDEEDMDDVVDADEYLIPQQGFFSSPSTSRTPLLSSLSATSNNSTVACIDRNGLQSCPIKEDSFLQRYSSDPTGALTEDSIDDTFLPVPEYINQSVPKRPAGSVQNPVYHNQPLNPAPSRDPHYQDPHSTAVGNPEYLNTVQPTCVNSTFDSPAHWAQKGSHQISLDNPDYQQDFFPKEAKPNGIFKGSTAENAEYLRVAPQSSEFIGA
Sequence of EGFR L858R/C797S Ba/F3 cells (P00533 whole entry C797S/L858R): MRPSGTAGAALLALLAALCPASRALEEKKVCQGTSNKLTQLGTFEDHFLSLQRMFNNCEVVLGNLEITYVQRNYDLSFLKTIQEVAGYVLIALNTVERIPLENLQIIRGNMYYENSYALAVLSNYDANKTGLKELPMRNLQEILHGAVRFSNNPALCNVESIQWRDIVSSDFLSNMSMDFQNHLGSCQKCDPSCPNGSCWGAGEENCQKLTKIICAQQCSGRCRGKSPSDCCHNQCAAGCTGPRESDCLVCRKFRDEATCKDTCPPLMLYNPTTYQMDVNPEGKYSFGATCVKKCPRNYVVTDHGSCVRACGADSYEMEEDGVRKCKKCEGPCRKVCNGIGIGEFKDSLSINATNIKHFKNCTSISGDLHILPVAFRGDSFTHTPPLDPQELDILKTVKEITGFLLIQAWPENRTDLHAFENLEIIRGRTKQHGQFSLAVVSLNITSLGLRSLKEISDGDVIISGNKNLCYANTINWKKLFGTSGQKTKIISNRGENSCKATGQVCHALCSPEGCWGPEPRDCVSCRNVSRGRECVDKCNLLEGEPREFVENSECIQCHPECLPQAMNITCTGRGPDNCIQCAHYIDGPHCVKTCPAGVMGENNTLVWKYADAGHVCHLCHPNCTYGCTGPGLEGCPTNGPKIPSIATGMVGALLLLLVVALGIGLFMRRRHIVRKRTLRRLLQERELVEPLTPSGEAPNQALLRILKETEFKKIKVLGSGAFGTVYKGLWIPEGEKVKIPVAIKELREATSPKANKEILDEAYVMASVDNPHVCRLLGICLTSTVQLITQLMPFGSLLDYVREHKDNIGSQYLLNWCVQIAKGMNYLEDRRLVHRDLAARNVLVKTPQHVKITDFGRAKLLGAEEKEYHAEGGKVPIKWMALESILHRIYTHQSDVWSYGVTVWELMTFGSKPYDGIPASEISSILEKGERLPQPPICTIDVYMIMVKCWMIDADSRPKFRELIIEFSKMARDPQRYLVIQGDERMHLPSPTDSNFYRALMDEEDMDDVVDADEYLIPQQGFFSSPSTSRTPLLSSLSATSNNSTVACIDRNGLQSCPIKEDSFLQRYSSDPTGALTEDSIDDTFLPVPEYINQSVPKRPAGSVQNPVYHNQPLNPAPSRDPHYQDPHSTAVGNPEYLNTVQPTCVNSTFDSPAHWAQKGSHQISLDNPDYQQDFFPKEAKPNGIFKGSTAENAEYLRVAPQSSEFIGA

In the case of `C=CC(=O)N1CCN(c2cc3cnc(N)nc3n(-c3ccc(CN4CCOCC4)cc3)c2=O)c2cccc(C)c21` [Compound 094, 2-amino-6-(5-methyl-4-prop-2-enoyl-2,3-dihydroquinoxalin-1-yl)-8-[4-(morpholinomethyl)phenyl]pyrido[2,3-d]pyrimidin-7-one], the GI50 in assay [1] and in assay [2] was at most 0.25 µM in each case.
Take `C=CC(=O)N1CCN(c2cc3cnc(N)nc3n([C@H]3CC[C@@](C)(O)CC3)c2=O)c2cccc(C)c21` [Compound 088, 6-(4-acryloyl-5-methyl-3,4-dihydroquinoxalin-1 (2H)-yl)-2-amino-8-((1s,4s)-4-hydroxy-4-methylcyclohexyl)pyrido[2,3-d]pyrimidin-7 (8H)-one]: the GI50 in assay [1] and in assay [2] was at most 0.25 µM each time.
With `C=CC(=O)N1CCN(c2cc3cnc(N)nc3n(-c3cccc(OC)c3)c2=O)c2cccc(C)c21` [Compound 090], the GI50 is at most 0.25 µM in assay [1] and 0.25 to 0.5 µM in assay [2].
With `C=CC(=O)N1CCN(c2c(F)c3cnc(Nc4ccc(N5CCN(C)CC5)cc4)nc3n(C)c2=O)c2c(F)cc(F)c(C)c21` [Compound 059, 6-(6,8-difluoro-5-methyl-4-prop-2-enoyl-2,3-dihydroquinoxalin-1-yl)-5-fluoro-8-methyl-2-[4-(4-methylpiperazin-1-yl)anilino]pyrido[2,3-d]pyrimidin-7-one], the GI50 in assay [1] and in assay [2] was at most 0.25 µM each time.
As to `C=CC(=O)N1CCN(c2cc3cnc(Nc4ccc(OCCN(C)C)cc4)nc3n(C)c2=O)c2cccc(C)c21` [Compound 033, 2-[4-[2-(dimethylamino)ethoxy]anilino]-8-methyl-6-(5-methyl-4-prop-2-enoyl-2,3-dihydroquinoxalin-1-yl)pyrido[2,3-d]pyrimidin-7-one], the GI50 in assay [1] and in assay [2] was at most 0.25 µM in each case.
Take `C=CC(=O)N1CCN(c2cc3cnc(NC4CC4)nc3n(CC3CCOC3)c2=O)c2cccc(C)c21` (stereo not drawn) [Compound 106, 2-(cyclopropylamino)-6-(5-methyl-4-prop-2-enoyl-2,3-dihydroquinoxalin-1-yl)-8-(tetrahydrofuran-3-ylmethyl)pyrido[2,3-d]pyrimidin-7-one]: the GI50 in assay [1] was at most 0.25 µM; in assay [2] it was 0.25 to 0.5 µM.
Taken in the same sequence, the figures for `C=CC(=O)NC1CCCN(c2cc3cnc(Nc4cnn(CCO)c4)nc3n(C)c2=O)C1` (stereo not drawn) [Compound 015, N-[1-[2-[[1-(2-hydroxyethyl)pyrazol-4-yl]amino]-8-methyl-7-oxo-pyrido[2,3-d]pyrimidin-6-yl]-3-piperidyl]prop-2-enamide] were at least 2.5 µM and at least 2.5 µM.
Consider `C=CC(=O)N1CC2CCN(c3cc4cnc(Nc5ccc(N6CCN(C)CC6)cc5)nc4n(C)c3=O)C[C@@H]2C1` (stereo partly drawn) [Compound 023, 8-methyl-2-[4-(4-methylpiperazin-1-yl)anilino]-6-(2-prop-2-enoyl-3,3a,4,6,7,7a-hexahydro-1H-pyrrolo[3,4-c]pyridin-5-yl)pyrido[2,3-d]pyrimidin-7-one], for which the GI50 in assay [1] and in assay [2] was at least 2.5 µM each time.
With `C=CC(=O)N1CCN(c2cc3cnc(NC4CC4)nc3n(C3CCOCC3)c2=O)c2cccc(C)c21` [Compound 097, 2-(cyclopropylamino)-6-(5-methyl-4-prop-2-enoyl-2,3-dihydroquinoxalin-1-yl)-8-tetrahydropyran-4-yl-pyrido[2,3-d]pyrimidin-7-one], the GI50 in assay [1] and in assay [2] was at most 0.25 µM throughout.
Turning to `C=CC(=O)N1CCN(c2cc3cnc(N)nc3n(-c3cccc(O)c3)c2=O)c2cccc(C)c21` [Compound 098, 2-amino-8-(3-hydroxyphenyl)-6-(5-methyl-4-prop-2-enoyl-2,3-dihydroquinoxalin-1-yl)pyrido[2,3-d]pyrimidin-7-one], the GI50 in assay [1] lay within 0.25 to 0.5 µM; in assay [2] it was 0.5 to 2.5 µM.
Taken in the same sequence, the figures for `C=CC(=O)N1CCN(c2cc3cnc(N)nc3n([C@H]3CC[C@H](OC)CC3)c2=O)c2cccc(C)c21` [Compound 086, 2-amino-8-(4-methoxycyclohexyl)-6-(5-methyl-4-prop-2-enoyl-2,3-dihydroquinoxalin-1-yl)pyrido[2,3-d]pyrimidin-7-one] were at most 0.25 µM and at most 0.25 µM.
Take `C=CC(=O)Nc1c(O)cccc1Oc1cc2cnc(Nc3ccc(N4CCN(C)CC4)cc3)nc2n(C)c1=O` [Compound 064, N-[2-hydroxy-6-[8-methyl-2-[4-(4-methylpiperazin-1-yl)anilino]-7-oxo-pyrido[2,3-d]pyrimidin-6-yl]oxy-phenyl]prop-2-enamide]: the GI50 in assay [1] is at most 0.25 µM; in assay [2], 0.25 to 0.5 µM.
In the same order, the values of `C=CC(=O)N1CCN(c2cc3cnc(N)nc3n(-c3ccc(OCCN(C)C)cc3)c2=O)c2cccc(C)c21` [Compound 080, 2-amino-8-[4-[2-(dimethylamino)ethoxy]phenyl]-6-(5-methyl-4-prop-2-enoyl-2,3-dihydroquinoxalin-1-yl)pyrido[2,3-d]pyrimidin-7-one] are at most 0.25 µM and at most 0.25 µM.
In the case of `C=CC(=O)N1CCN(c2cc3cnc(N)nc3n([C@H]3CC[C@](C)(O)CC3)c2=O)c2cccc(C)c21` [Compound 087, 6-(4-acryloyl-5-methyl-3,4-dihydroquinoxalin-1 (2H)-yl)-2-amino-8-((1r,4r)-4-hydroxy-4-methylcyclohexyl)pyrido[2,3-d]pyrimidin-7 (8H)-one], the GI50 in assay [1] and in assay [2] was at most 0.25 µM throughout.
As for `C=CC(=O)N1CCN(c2cc3cnc(Nc4cc(OC)ncc4C)nc3n(C)c2=O)c2cccc(C)c21` [Compound 063], the GI50 in assay [1] lay within 0.25 to 0.5 µM; in assay [2], 0.5 to 2.5 µM.
For the compound `C=CC(=O)N1CCN(c2cc3cnc(NC4CC4)nc3n(C)c2=O)c2cccc(C)c21` [Compound 083, 2-(cyclopropylamino)-8-methyl-6-(5-methyl-4-prop-2-enoyl-2,3-dihydroquinoxalin-1-yl)pyrido[2,3-d]pyrimidin-7-one], the GI50 in assay [1] and in assay [2] was 0.5 to 2.5 µM throughout.
Turning to `C=CC(=O)N1CCN(c2cc3cnc(Nc4ccc(N5CCN(C)CC5)cc4)nc3n(C)c2=O)c2cccc(OC)c21` [Compound 021], the GI50 in assay [1] and in assay [2] was at most 0.25 µM throughout.
As for `C=CC(=O)N1CCN(c2cc3cnc(Nc4ccc(OCCN(C)C)c(F)c4)nc3n(C)c2=O)c2cccc(C)c21` [Compound 075], the GI50 in assay [1] and in assay [2] was at most 0.25 µM each time.
On to `C=CC(=O)N1CCN(c2cc3cnc(Nc4ccc(CS(=O)(=O)NC)cc4)nc3n(C)c2=O)c2cccc(C)c21` [Compound 034, N-methyl-1-[4-[[8-methyl-6-(5-methyl-4-prop-2-enoyl-2,3-dihydroquinoxalin-1-yl)-7-oxo-pyrido[2,3-d]pyrimidin-2-yl]amino]phenyl]methanesulfonamide], for which the GI50 in assay [1] and in assay [2] was at most 0.25 µM throughout.
On to `C=CC(=O)N1CCN(c2cc3cnc(NC4CC4)nc3n(-c3ccc(N(C)CCOC)cc3)c2=O)c2cccc(C)c21` [Compound 100, 2-(cyclopropylamino)-8-[4-[2-methoxyethyl(methyl)amino]phenyl]-6-(5-methyl-4-prop-2-enoyl-2,3-dihydroquinoxalin-1-yl)pyrido[2,3-d]pyrimidin-7-one], for which the GI50 in assay [1] and in assay [2] was at most 0.25 µM in each case.
`C=CC(=O)N1CCN(c2cc3cnc(Nc4ccccc4)nc3n([C@H]3C[C@@H](O)C3)c2=O)c2cccc(C)c21` [Compound 069]: the GI50 in assay [1] and in assay [2] was at most 0.25 µM each time.
